One may read the ΔTm as the change in melting temperature against a reference sample.

Test [1] deals with c-myc (DNA, G4) TGAGGGTGGGGAGGGTGGGGAA
The test is described as follows: ITC. Conditions: K+ (50 mM KH2PO4-K2HPO4); potassium phosphate buffer pH 7.0, 25 °C, dilute condition without PEG200.

Test [2] has the same test system. The test can be described thus: CD melting at 263 nm. Conditions: 5 mM KCl; 50 mM Tris-HCl pH 7.4; 4.5 μM compound, 1.5 μM DNA.
Test [3] concerns Telomere G1 (DNA, G4) TAGGGTTAGGGTTAGGGTTAGGG
The test is described as follows: ITC. The note with it: K+ (50 mM KH2PO4-K2HPO4); potassium phosphate buffer pH 7.0, 25 °C, dilute condition without PEG200.

The test system is the same in test [4]. The test is described as follows: CD melting at 288 nm. The note with it: 100 mM KCl, 50 mM Tris-HCl pH 7.4, 4.5 μM compound, 1.5 μM DNA.

Take `CN1CCCNC(=O)CC2(CCCCC2)CC(=O)NCCCN(C)CCCN2C(=O)c3ccc4c5c(ccc(c35)C2=O)C(=O)N(CCC1)C4=O`: the results for the Ka in test [1] and in test [3] were 6.2e+06 M⁻¹ and 1.5e+06 M⁻¹, respectively. In addition, the ΔTm in test [2] is > 15 °C; in test [4] (derived from two Tm (73.5, 65)), 8.5 °C.

On to `CN1CCCNC(=O)CCCC(=O)NCCCN(C)CCCN2C(=O)c3ccc4c5c(ccc(c35)C2=O)C(=O)N(CCC1)C4=O`, for which the Ka was determined as 1.1e+06 M⁻¹ in test [1] and 3.4e+06 M⁻¹ in test [3]. Also, the shift in melting temperature (ΔTm) was > 15 °C in test [2] and 5.5 °C in test [4] (derived from two Tm (70.5, 65)).

Consider `CN1CCCNC(=O)c2cccc(c2)C(=O)NCCCN(C)CCCN2C(=O)c3ccc4c5c(ccc(c35)C2=O)C(=O)N(CCC1)C4=O`, for which the results for the Ka in test [1] and in test [3] were 2.4e+06 M⁻¹ and 2.2e+06 M⁻¹, respectively. Also, the ΔTm in test [2] is > 15 °C; in test [4] (derived from two Tm (79, 65)), 14 °C.

The values above are taken from PMC7037305 (2020).
